{
  "source": "patent US20240382544A1",
  "about": "“COMPOSITION FOR ANTI-OBESITY AND PREVENTING OR TREATING MUSCLE LOSS, CONTAINING CATECHIN GLYCOSIDE EXTRACT DERIVED FROM PLANT IN GENUS ULMUS AS ACTIVE INGREDIENT” (DR. OREGONIN INC., priority 2022, published 2024)",
  "system": "3T3-L1 cells",
  "assay": "Adipocyte differentiation (fat accumulation), Oil Red O staining",
  "assay_type": "cell-based, mouse",
  "experimental": "3T3-L1 cells, which are mouse-derived preadipocytes, were purchased from Korean Cell Line Bank. The 3T3-L1 cells were cultured using an DMEM medium (Welgene) supplemented with 10% bovine calf serum (BCF), 100 units/mL penicillin and 100 μg/mL streptomycin (complete DMEM medium) in a humidified CO2 incubator (5% CO2/95% air) at 37° C. When the cells filled about 80% of the culture dish, the cell monolayer was washed with phosphate-buffered saline (PBS, pH 7.4) and the cells were detached by adding trypsin-2.65 mM EDTA. Then, the cells were subcultured while replacing the medium every other day.\n3T3-L1 cells were seeded onto a 24-well plate at 1×10^5 cells/well. When the cells reached confluence, differentiation into adipocytes was induced by culturing the cells while replacing the medium sequentially with three differentiation media (DM). That is to say, differentiation was induced for 2 days by replacing the medium with a differentiation medium wherein DMI (1 μM dexamethasone, 0.5 mM 3-isobutyl-1-methylxanthine (IBMX) and 5 μg/mL insulin) was added to a DMEM medium containing 10% FBS. Then, differentiation was induced again for 2 days by replacing the medium with a fresh differentiation medium wherein 5 μg/mL insulin was added to a DMEM medium containing 10% FBS. Then, differentiation into adipocytes was induced by maintaining the cells for 2 days in a DMEM medium containing 10% FBS. […]",
  "note": "“Also recorded” adds a separate entry of the source.",
  "data": [
    {"molecule": "OCC1(O)CO[C@@H](Oc2cc(O)c3c(c2)OC(c2ccc(O)c(O)c2)[C@@H](O)C3)C1O", "note": "(stereo partly drawn) [catechin 7-O-β-D-apiofuranoside]", "values": [
      {"measurement": "adipocyte differentiation-inhibiting ability (in words)", "setting": "3T3-L1, concentration dependence", "result": "statistically significant adipocyte differentiation-inhibiting ability in a concentration-dependent manner; also recorded: inhibits the differentiation of adipocytes in a concentration-dependent manner with statistical significance"},
      {"measurement": "inhibition at 20 µg/mL", "setting": "Mus musculus, 20 μg/mL (highest concentration tested), 3T3-L1, Oil Red O, read-out: adipocyte differentiation-inhibiting ability", "result": "≥ 40", "unit": "%"}
    ]}
  ]
}
